Laboratory results taken from patent US7841299B2, “Method and apparatus for applying hoof care, sanitizing, or treatment solutions to the feet or hooves of animals” (Jot Holdings, LLC, priority 2007, dated 2010).

Tested on: active lesions (interdigital dermatitis or hairy warts)

O=S(=O)([O-])[O-].[Cu+2] [copper sulfate]
lesions per week, average (50 gallons water + 25 lbs copper sulfate per 400 cows, once per day, 4 days per week, 1,600 cow dairy): 22 lesions per week
lesions per week, high (same regimen, 8 week record): 36
lesions per week, low (same regimen, 8 week record): 13
